According to PMC13462928 (Nature Communications, 2026):
Like-named read-outs stand apart in the source and are kept apart here.

What was measured:
[1] = biological target: NUDT5 and the respective E3 ligase (Homo sapiens, UniProt P40337+Q9UKK9); test: NanoBRET ternary complex formation assay NUDT5 and the respective E3 ligase (VHL or CRBN) in HEK293 cells; assay type: cell-based; conditions: for Ternary complex formation below 1 µM (4 h): HEK293, 4 h; for Ternary complex formation below 1 µM (20 h): HEK293, 20 h
Method: NanoBRET ternary complex assays were performed following the manufacturer’s instructions (Promega). […] After 4 h or 20 h of incubation, a mix of substrate in assay medium was added to each well. Donor and acceptor signals were measured in a PHERAstar FSX or FS plate reader and analyzed by GraphPad Prism (v.9 or v.10). The acceptor/donor ratio was calculated, the no ligand background signal was subtracted, and multiplied by 1000 to yield mBRET units. Data were then normalized to DMSO.

NUDT5 [2] = biological target: NUDT5 (Homo sapiens, UniProt Q9UKK9); test: NanoBRET NUDT5 target engagement (TE) assay in HEK293 cells; assay type: cell-based; set-up: expressed in transfected cells; host or cells: HEK293
NUDT5 [3] = biological target: T1, NUDT5 (Homo sapiens, UniProt Q96SW2+Q9UKK9); test: Western blot NUDT5 degradation in HEK293 cells; assay type: cell-based; conditions: 20 h, Western blot
Method: (§1) Pellets were lysed on ice using RIPA buffer (25 mM Tris (pH 7.5), 150 mM NaCl, 1% Igepal, 1% SDS, 0.1% SDC, 1x protease inhibitor (Roche, cOmplete mini, 11836170001), 1x phosphatase (Thermo Scientific, Halt, 78429), 0.1% benzonase (Merck, E1014-5KU)), incubated for 15 min and then centrifuged for 20 min at 4 °C at maximum speed in a table-top centrifuge. […] Membranes were blocked with 6% milk in PBS-T for 1 h at RT, washed, and then incubated with primary antibody diluted in PBS-T supplemented with 0.1% NaN3 overnight at 4 °C. Membranes were incubated with fluorophore-conjugated secondary antibodies, Alexa Fluor 680 anti-rabbit IgG (Life Technologies, A21109), Alexa Fluor 750 anti-mouse IgG (Life Technologies, A21037) diluted 1:5000 in 2% milk PBS-T, washed and imaged with an Odyssey imager (Licor).

HAP1 cells = test: Titration of NUDT5 degraders and controls against fixed 6-TG (2 µg/mL) in HAP1 cells, cell viability; assay type: cell-based, human; conditions: HAP1, 2 µg/mL 6-TG, 72 h
Method: Cells were counted and adjusted to a density of 25,000 cells/mL in culture medium. […] Plates were sealed with breathable film and incubated at 37 °C with 5% CO₂ for 72 hours. Cell viability was assessed using the CellTiter-Glo Luminescent Cell Viability Assay, following the manufacturer’s protocol (Promega). Luminescence was measured using a PHERAstar FS or FSX plate reader, and data were analyzed using GraphPad Prism software (versions 9 or 10). Results were normalized to the vehicle control (DMSO).

NUDT5 [4] = biological target: T1, NUDT5; test: Western blot NUDT5 degradation in HAP1 cells; assay type: cell-based; set-up: endogenous in cells; host or cells: HAP1; conditions: HAP1 cells, Western blot, Fig. 3B
Method: as §1

[5] = read-out: EC50 (µM), TE 4h, HEK293, 4 h, Supplementary Table 1

Sequence of NUDT5 and the respective E3 ligase (P40337 whole entry, one chain of several): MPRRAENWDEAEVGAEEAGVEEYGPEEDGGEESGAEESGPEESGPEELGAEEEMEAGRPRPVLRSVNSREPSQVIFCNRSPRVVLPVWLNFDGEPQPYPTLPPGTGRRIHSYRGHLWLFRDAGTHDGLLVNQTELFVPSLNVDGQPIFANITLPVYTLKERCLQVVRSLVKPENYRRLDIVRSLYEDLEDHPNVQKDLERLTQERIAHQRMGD

## Cn1c(=O)c2c(nc(N3CCN(C(=O)CCCCCCOc4cccc5c4C(=O)N(C4CCC(=O)NC4=O)C5=O)CC3)n2Cc2nnc(-c3ccc(Cl)c(Cl)c3)o2)n(C)c1=O (stereo not shown) [ASM136]
[1]; Supplementary Table 2
  Ternary complex formation below 1 µM (4 h): No
  Ternary complex formation below 1 µM (20 h): No

## Cc1ncsc1-c1ccc(CNC(=O)C2CC(O)CN2C(=O)C(NC(=O)COCCOCCCCCCC(=O)N2CCN(c3nc4c(c(=O)n(C)c(=O)n4C)n3Cc3nnc(-c4ccc(Cl)c(Cl)c4)o3)CC2)C(C)(C)C)cc1 (stereo not shown) [ASM076]
[1]; Supplementary Table 2
  Ternary complex formation below 1 µM (20 h): No
NUDT5 [2]; read-out: EC50 (nM) TE (4h), HEK293, 4 h, Supplementary Table 2
  EC50: 2000 nM

## Cc1ncsc1-c1ccc(CNC(=O)C2CC(O)CN2C(=O)C(NC(=O)CCCCCOCCOCCOCCCCCCN2CCCC(n3nc(-c4ccc(Oc5ccccc5)cc4)c4c(N)ncnc43)C2)C(C)(C)C)cc1 (stereo not shown) [ASM73]
[1]; Supplementary Table 1
  Ternary complex formation below 1 µM (20 h): No
NUDT5 [2]; [5]
  EC50: > 10000 nM

## Cn1c(=O)c2c(nc(N3CCN(C(=O)CCOCCNc4cccc5c4C(=O)N(C4CCC(=O)NC4=O)C5=O)CC3)n2Cc2nnc(-c3ccc(Cl)c(Cl)c3)o2)n(C)c1=O (stereo not shown) [ASM137]
NUDT5 [3]
  effect on NUDT5 protein levels: no significant effects on NUDT5 protein levels
[1]; Supplementary Table 2
  Ternary complex formation below 1 µM (4 h): Yes
  Ternary complex formation below 1 µM (20 h): Yes

## CN1C(=O)CCC(N2C(=O)c3ccc(N4CCN(CC5CCN(C(=O)N6CCN(c7nc8c(c(=O)n(C)c(=O)n8C)n7Cc7nnc(-c8ccc(Cl)c(Cl)c8)o7)CC6)CC5)CC4)cc3C2=O)C1=O (stereo not shown) [dNUDT5nc]
HAP1 cells
  rescue of 6-TG-induced toxicity: failed to rescue cell viability
NUDT5 [4]
  NUDT5 degradation: preventing NUDT5 degradation
NUDT5 [2]; HEK293 cells, Supplementary Fig. 6B, read-out: NUDT5 NanoBRET target engagement EC50
  EC50: 28 nM
NUDT5 [2]; NanoBRET
  NUDT5 engagement in live cells: engaged their cognate target NUDT5 in live cells

## Cn1c(=O)c2c(nc(N3CCN(CC4CCN(c5cc6c(cc5F)C(=O)N(C5CCC(=O)NC5=O)C6=O)CC4)CC3)n2Cc2nnc(-c3ccc(Cl)c(Cl)c3)o2)n(C)c1=O (stereo not shown) [ASM71]
[1]; Supplementary Table 3
  Ternary complex formation below 1 µM (20 h): No
NUDT5 [2]; read-out: EC50 (nM) TE (4h), HEK293, 4 h, Supplementary Table 3
  EC50: 17 nM

## Cn1c(=O)c2c(nc(N3CCN(C(=O)CCCCNC(=O)COc4cccc5c4C(=O)N(C4CCC(=O)NC4=O)C5=O)CC3)n2Cc2nnc(-c3ccc(Cl)c(Cl)c3)o2)n(C)c1=O (stereo not shown) [ASM57]
[1]; Supplementary Table 2
  Ternary complex formation below 1 µM (20 h): No

## Cn1c(=O)c2c(nc(N3CCN(C(=O)CCCCCNc4cccc5c4C(=O)N(C4CCC(=O)NC4=O)C5=O)CC3)n2Cc2nnc(-c3ccc(Cl)c(Cl)c3)o2)n(C)c1=O (stereo not shown) [ASM122]
NUDT5 [3]
  effect on NUDT5 protein levels: no significant effects on NUDT5 protein levels
[1]; Supplementary Table 2
  Ternary complex formation below 1 µM (4 h): Yes
  Ternary complex formation below 1 µM (20 h): Yes

## Nc1ncnc2c1c(-c1ccc(Oc3ccccc3)cc1)nn2[C@@H]1CCCN(C(=O)c2cn(CCOCCOCCOCCNc3cccc4c3C(=O)N(C3CCC(=O)NC3=O)C4=O)nn2)C1 (stereo partly shown) [Compound P13I1, reference compound]
[1]; Supplementary Table 1
  Ternary complex formation below 1 µM (20 h): No
NUDT5 [2]; [5]
  EC50: 8900 nM

## Cc1ncsc1-c1ccc(CNC(=O)C2CC(O)CN2C(=O)C(NC(=O)COCCOCCCCCCC(=O)N2CCC(n3nc(-c4ccc(Oc5ccccc5)cc4)c4c(N)ncnc43)CC2)C(C)(C)C)cc1 (stereo not shown) [ASM74]
[1]; Supplementary Table 1
  Ternary complex formation below 1 µM (20 h): No
NUDT5 [2]; [5]
  EC50: > 10000 nM

## Cn1c(=O)c2c(nc(N3CCN(C(=O)CCCCCCCNc4cccc5c4C(=O)N(C4CCC(=O)NC4=O)C5=O)CC3)n2Cc2nnc(-c3ccc(Cl)c(Cl)c3)o2)n(C)c1=O (stereo not shown) [ASM134]
[1]; Supplementary Table 2
  Ternary complex formation below 1 µM (4 h): Yes
  Ternary complex formation below 1 µM (20 h): Yes

## Cc1ncsc1-c1ccc(CNC(=O)C2CC(O)CN2C(=O)C(NC(=O)CCCCCOCCCCCOCCCCCCN2CCCC(n3nc(-c4ccc(Oc5ccccc5)cc4)c4c(N)ncnc43)C2)C(C)(C)C)cc1 (stereo not shown) [ASM32]
[1]; Supplementary Table 1
  Ternary complex formation below 1 µM (20 h): No
NUDT5 [2]; [5]
  EC50: > 10000 nM

## Cn1c(=O)c2c(nc(N3CCN(C(=O)CCCCCCNc4cccc5c4C(=O)N(C4CCC(=O)NC4=O)C5=O)CC3)n2Cc2nnc(-c3ccc(Cl)c(Cl)c3)o2)n(C)c1=O (stereo not shown) [ASM84]
[1]; Supplementary Table 2
  Ternary complex formation below 1 µM (20 h): Yes
